Patent US20050112079A1, “Depilatories and agents for external use” (KAO CORPORATION, priority 1999, published 2005)
Where no end group is shown, it is not given here.

Columns and labels:
[1] = tested on: growth-phase hair follicles; assay: Growth-phase hair follicle inhibitory effects, number of hair shafts grown per unit area; assay type: in vivo; conditions: guinea pig dorsal, 1 μg intracutaneous, fifth day after the administration (FIG. 1)
Description: Solutions (1 μg, each) of endothelin-1, endothelin-2 and endotherin-3 in aliquots of phosphate buffer solution (PBS), which contained 0.1% of bovine serum albumin (BSA), were intracutaneously administered (at 50 μL/site) to the dorsal parts of guinea pigs, respectively, from which hair had been cut off by a hair clipper. Three days after the administration, hair was again cut off by a hair clipper from the administered sites. Two days after the cutting, the numbers of hair shafts grown per unit area at the administered sites were counted.

[2] = tested on: hair at the dorsal part of a guinea pig; assay: Depilation inducing effects of endothelin, intracutaneous administration; assay type: in vivo; conditions: 0.3 μg intracutaneous (50 μL/site), 10 days after the administration
Description: A solution of endothelin-1 (0.3 μg) in phosphate buffer solution (PBS), which contained 0.1% of bovine serum albumin (BSA), was intracutaneously administered (at 50 μL/site) to the dorsal part of a guinea pig.

[3] = tested on: growth-phase hair follicle; assay: Structural changes of hair follicle structure, hematoxylin-eosin stained dorsal skin; assay type: in vivo; conditions: guinea pig, 0.3 μg intracutaneous
Description: A solution of endothelin-1 (0.3 μg) in phosphate buffer solution (PBS), which contained […] of bovine serum albumin (BSA), was intracutaneously administered (at 50 μL/site) to the dorsal part of a guinea pig. After that, samples were collected day after day from the administered dorsal skin, and tissue samples were prepared by hematoxylin-eosin staining.

[4] = tested on: hair follicle organs in growth phase isolated from human scalp tissue; assay: Growth inhibitory effects on organ-cultured hair follicles; assay type: cell-based
Description: From a human scalp tissue, hair follicle organs in growth phase were surgically isolated under a stereomicroscope. Following a conventional procedure [Philpott M. P., et al., J. Cell Sci., 97, 463-471 (1990)], the isolated hair follicles were subjected to organ culture. Described specifically, endothelin-1 was added to William's E medium which contained L-glutamine (2 mM), hydrocortisone (10 ng/mL), insulin (10 μg/mL), sodium selenite (10 ng/mL) and transferrin (10 μg/mL).

[5] = tested on: regrowth of dorsal hair; assay: Hair growth test in mice, application to depilated skin; assay type: in vivo, C3H/HeNCrj mouse; conditions: mouse, 0.5 mg in 2.5 mL PEG 400/PEG 3350 (95/5), 25 μL/application once a day over 2 weeks; regrown hair area/depilated area×100
Description: Endothelin-1 (0.5 mg) was dissolved in a mixed solution (2.5 mL) of polyethylene glycol 400 (average molecular weight: 400) and polyethylene glycol 3350 (average molecular weight: 3,350) (mixing ratio: 95/5) to prepare a hair growth inhibitor. Dorsal hair of each 8-week old C3H/HeNCrj mouse was removed with a depilatory cream (over an area of 2×4 cm^2), and the hair growth inhibitor was applied to the depilated site once a day at a dose of 25 μL/application over 2 weeks. A group in which only the solvent was similarly applied was employed as a control group. To observe regrowth of hair, the above-described depilated site on day 14 after the depilation was photographed at a predetermined fixed magnification, and the percentage of a regrown hair area (regrown hair area/depilated area×100) was determined using an image analyzer.

## endothelin-3 (CTCFTYKDKECVYYCHLDIIW; ends and bridges not checked; cysteine pairing not given here; UniProt P14138 97-117, looked up) [endotherin-3, isoform of endothelin, a peptide composed of 21 amino acid residues]
[1]
  Number of hair shafts grown per unit area at the administered site: significant (p<0.01) decrease in the number of hair shafts

## endothelin-2 (CSCSSWLDKECVYFCHLDIIW; ends and bridges not checked; cysteine pairing not given here; UniProt P20800 49-69, looked up) [isoform of endothelin, a peptide composed of 21 amino acid residues]
[1]
  Number of hair shafts grown per unit area at the administered site: significant (p<0.01) decrease in the number of hair shafts

## CC[C@H](C)[C@H](NC(=O)[C@H](CC(=O)O)NC(=O)[C@H](CC(C)C)NC(=O)[C@H](Cc1c[nH]cn1)NC(=O)[C@@H]1CSSC[C@H](N)C(=O)N[C@@H](CO)C(=O)N[C@H]2CSSC[C@H](NC(=O)[C@H](CCC(=O)O)NC(=O)[C@H](CCCCN)NC(=O)[C@H](CC(=O)O)NC(=O)[C@H](CCSC)NC(=O)[C@H](CC(C)C)NC(=O)[C@H](CO)NC(=O)[C@H](CO)NC2=O)C(=O)N[C@@H](C(C)C)C(=O)N[C@@H](Cc2ccc(O)cc2)C(=O)N[C@@H](Cc2ccccc2)C(=O)N1)C(=O)N[C@H](C(=O)N[C@@H](Cc1c[nH]c2ccccc12)C(=O)O)[C@@H](C)CC [Endothelin-1, endothelin-1]
[2]
  Depilation at the administered site: hair shaft falling-off and formation of a marked depilation spot
[1]
  Number of hair shafts grown per unit area at the administered site: significant (p<0.01) decrease in the number of hair shafts
[3]; 1st day after the administration (FIG. 2)
  Hair follicle histology: regressed image of a growth-phase hair follicle
[3]; 3rd day after the administration (FIG. 2)
  Hair follicle histology: image of a follicular tissue in transition phase
[4]; day 4 of incubation and the subsequent days (FIG. 3)
  Grown hair follicle length versus control group: significant hair growth inhibitory effects
[4]; during the incubation period (FIG. 4)
  Structural change of incubated hair follicles: structural change of the endothelin-treated, growth-phase hair follicles into those similar to resting-phase hair follicles
[5]
  Percentage of regrown hair area on day 14 after depilation: 2.22 Percentage
